Assay results as given in patent US10670605B2, “Cysteine reactive probes and uses thereof” (The Scripps Research Institute, priority 2015, dated 2020).

Tests used:
Assay in all cases: Competitive isoTOP-ABPP, cell lysates
Format in all cases: binding
[1] = target: IDH1 C269 (O75874) (Homo sapiens, UniProt O75874); details: for isoTOP-ABPP reactivity ratio, O75874_C269: 500 μm
[2] = target: GSTP1 C48 (P09211) (Homo sapiens, UniProt P09211); details: for isoTOP-ABPP reactivity ratio, P09211_C48: 500 μm
Chain of GSTP1 C48 (P09211) (P09211 whole entry): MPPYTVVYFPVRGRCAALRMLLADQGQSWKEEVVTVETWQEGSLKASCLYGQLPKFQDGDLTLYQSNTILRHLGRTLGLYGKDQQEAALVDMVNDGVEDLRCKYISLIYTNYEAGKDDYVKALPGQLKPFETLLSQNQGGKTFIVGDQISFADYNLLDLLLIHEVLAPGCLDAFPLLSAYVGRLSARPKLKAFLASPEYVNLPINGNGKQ

[3] = target: T1, AIP C122 (O00170) (Homo sapiens, UniProt O00170); details: for isoTOP-ABPP reactivity ratio, O00170_C122: 500 μm
T1 sequence (O00170 1-330): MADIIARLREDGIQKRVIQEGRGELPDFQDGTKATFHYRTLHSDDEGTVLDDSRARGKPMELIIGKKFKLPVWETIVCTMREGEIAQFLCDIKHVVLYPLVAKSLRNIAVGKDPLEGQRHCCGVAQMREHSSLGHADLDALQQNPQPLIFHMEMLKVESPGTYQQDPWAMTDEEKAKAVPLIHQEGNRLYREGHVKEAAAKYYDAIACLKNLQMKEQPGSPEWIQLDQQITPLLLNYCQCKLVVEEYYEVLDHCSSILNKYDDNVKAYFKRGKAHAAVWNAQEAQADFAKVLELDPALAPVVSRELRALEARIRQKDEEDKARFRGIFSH

[4] = target: DCUN1D1 C115 (Q96GG9) (Homo sapiens, UniProt Q96GG9); details: for isoTOP-ABPP reactivity ratio, Q96GG9_C115: 500 μm
Chain of DCUN1D1 C115 (Q96GG9) (Q96GG9 whole entry): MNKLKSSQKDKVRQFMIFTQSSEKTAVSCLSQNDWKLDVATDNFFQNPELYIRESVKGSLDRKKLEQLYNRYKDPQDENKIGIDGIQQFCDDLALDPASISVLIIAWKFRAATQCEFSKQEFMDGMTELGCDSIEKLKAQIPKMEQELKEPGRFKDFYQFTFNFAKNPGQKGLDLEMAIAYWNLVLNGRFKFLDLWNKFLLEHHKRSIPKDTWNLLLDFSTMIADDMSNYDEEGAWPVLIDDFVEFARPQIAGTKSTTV

[5] = target: T2, PDIA6 C55 (Q15084) (Homo sapiens, UniProt Q15084); details: for isoTOP-ABPP reactivity ratio, Q15084_C55: 500 μm
T2 sequence (Q15084 20-440): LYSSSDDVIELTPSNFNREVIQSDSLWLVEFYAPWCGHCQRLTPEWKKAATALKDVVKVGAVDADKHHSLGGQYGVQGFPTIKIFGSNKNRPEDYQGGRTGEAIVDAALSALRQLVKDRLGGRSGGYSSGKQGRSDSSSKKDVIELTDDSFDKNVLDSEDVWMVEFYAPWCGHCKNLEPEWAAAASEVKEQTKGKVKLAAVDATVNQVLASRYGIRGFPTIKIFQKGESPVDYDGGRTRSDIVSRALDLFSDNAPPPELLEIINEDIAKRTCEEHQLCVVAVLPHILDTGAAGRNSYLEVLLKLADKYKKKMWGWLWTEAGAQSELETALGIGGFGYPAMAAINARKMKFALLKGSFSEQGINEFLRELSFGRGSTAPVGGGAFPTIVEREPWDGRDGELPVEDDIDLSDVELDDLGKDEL

[6] = target: T3, MGMT C150 (P16455) (Homo sapiens, UniProt P16455); details: for isoTOP-ABPP ratio (reactivity profile), P16455_C150: 500 μm in-vitro ramos; for isoTOP-ABPP reactivity ratio, P16455_C150: 500 μm, in-vitro_ramos
T3 sequence (P16455 1-207): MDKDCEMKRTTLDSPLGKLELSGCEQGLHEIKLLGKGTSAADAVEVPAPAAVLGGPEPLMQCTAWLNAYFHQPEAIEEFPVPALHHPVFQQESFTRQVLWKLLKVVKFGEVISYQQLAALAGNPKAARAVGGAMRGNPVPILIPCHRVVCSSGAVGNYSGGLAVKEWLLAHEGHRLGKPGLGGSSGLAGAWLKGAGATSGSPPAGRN

[7] = target: XPO1 C528 (O14980) (Homo sapiens, UniProt O14980); details: for isoTOP-ABPP reactivity ratio, O14980_C528: 500 μm
Chain of XPO1 C528 (O14980) (O14980 whole entry): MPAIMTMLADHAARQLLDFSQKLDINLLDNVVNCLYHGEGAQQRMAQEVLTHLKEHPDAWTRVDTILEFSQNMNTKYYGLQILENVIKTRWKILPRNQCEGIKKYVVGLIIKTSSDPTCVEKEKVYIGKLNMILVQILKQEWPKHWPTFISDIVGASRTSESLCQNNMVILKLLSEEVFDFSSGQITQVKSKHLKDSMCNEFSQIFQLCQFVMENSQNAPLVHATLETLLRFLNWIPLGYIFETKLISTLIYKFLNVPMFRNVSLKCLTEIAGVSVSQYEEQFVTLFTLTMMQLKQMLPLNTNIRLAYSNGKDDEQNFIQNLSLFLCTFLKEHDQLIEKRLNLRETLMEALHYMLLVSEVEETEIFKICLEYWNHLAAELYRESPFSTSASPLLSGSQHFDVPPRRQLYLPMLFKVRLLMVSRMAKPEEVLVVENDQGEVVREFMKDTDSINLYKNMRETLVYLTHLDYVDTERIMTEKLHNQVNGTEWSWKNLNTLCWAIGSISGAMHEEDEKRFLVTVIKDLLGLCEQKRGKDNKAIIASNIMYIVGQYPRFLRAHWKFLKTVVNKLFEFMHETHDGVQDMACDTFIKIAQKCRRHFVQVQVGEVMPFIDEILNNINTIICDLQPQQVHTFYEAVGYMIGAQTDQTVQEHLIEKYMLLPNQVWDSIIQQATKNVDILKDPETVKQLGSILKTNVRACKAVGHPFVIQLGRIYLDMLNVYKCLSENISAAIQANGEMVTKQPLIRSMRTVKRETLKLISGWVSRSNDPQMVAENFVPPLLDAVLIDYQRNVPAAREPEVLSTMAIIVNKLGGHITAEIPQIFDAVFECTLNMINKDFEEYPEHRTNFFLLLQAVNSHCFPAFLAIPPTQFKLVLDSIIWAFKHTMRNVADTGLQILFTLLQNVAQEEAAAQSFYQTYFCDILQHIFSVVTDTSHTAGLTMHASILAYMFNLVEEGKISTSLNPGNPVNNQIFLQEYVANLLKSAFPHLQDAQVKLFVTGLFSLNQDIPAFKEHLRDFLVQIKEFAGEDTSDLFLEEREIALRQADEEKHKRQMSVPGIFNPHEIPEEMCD

[8] = target: GNB2L1 C182 (P63244) (Homo sapiens, UniProt P63244); details: for isoTOP-ABPP reactivity ratio, P63244_C182: 500 μm, in-vitro_ramos_231

Chain of IDH1 C269 (O75874) (O75874 whole entry): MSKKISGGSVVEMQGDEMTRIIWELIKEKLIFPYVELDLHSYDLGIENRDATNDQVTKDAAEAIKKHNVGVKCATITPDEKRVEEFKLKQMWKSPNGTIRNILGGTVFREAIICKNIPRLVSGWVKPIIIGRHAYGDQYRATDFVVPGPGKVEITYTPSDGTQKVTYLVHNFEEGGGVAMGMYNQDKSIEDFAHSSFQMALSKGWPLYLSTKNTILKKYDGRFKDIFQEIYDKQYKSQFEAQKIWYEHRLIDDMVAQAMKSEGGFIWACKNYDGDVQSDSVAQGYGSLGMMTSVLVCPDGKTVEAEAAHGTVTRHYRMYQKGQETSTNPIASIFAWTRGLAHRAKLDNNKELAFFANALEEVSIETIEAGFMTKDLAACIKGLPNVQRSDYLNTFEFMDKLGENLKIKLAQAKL

Compound	isoTOP-ABPP ratio (reactivity profile), O75874_C269 ([1]; 500 μm in-vitro ramos_231)	isoTOP-ABPP ratio (reactivity profile), P09211_C48 ([2]; 500 μm in-vitro ramos)	isoTOP-ABPP ratio (reactivity profile), P09211_C48 ([2]; 500 μm in-vitro ramos_231)	isoTOP-ABPP ratio (reactivity profile), O00170_C122 ([3]; 500 μm in-vitro ramos_231)	isoTOP-ABPP ratio (reactivity profile), Q96GG9_C115 ([4]; 500 μm in-vitro ramos)	isoTOP-ABPP ratio (reactivity profile), Q15084_C55 ([5]; 500 μm in-vitro ramos)	isoTOP-ABPP ratio (reactivity profile), Q15084_C55 ([5]; 500 μm in-vitro ramos_231)	isoTOP-ABPP ratio (reactivity profile), P16455_C150 [6]	isoTOP-ABPP ratio (reactivity profile), O14980_C528 ([7]; 500 μm in-vitro ramos)	isoTOP-ABPP ratio (reactivity profile), P63244_C182 ([8]; 500 μm in-vitro ramos)	isoTOP-ABPP ratio (reactivity profile), P63244_C182 ([8]; 500 μm in-vitro ramos_231)	isoTOP-ABPP ratio (reactivity profile), O75874_C269 ([1]; 500 μm in-vitro ramos)	isoTOP-ABPP ratio (reactivity profile), O00170_C122 ([3]; 500 μm in-vitro ramos)	isoTOP-ABPP reactivity ratio, O75874_C269 ([1]; in-vitro_ramos_231)	isoTOP-ABPP reactivity ratio, P09211_C48 ([2]; in-vitro_ramos_231)	isoTOP-ABPP reactivity ratio, O00170_C122 ([3]; in-vitro_ramos)	isoTOP-ABPP reactivity ratio, Q96GG9_C115 ([4]; in-vitro_ramos)	isoTOP-ABPP reactivity ratio, Q15084_C55 ([5]; in-vitro_ramos)	isoTOP-ABPP reactivity ratio, Q15084_C55 ([5]; in-vitro_ramos_231)	isoTOP-ABPP reactivity ratio, P16455_C150 [6]	also measured
O=C(CCl)NC12CC3CC(CC(C3)C1)C2 [compound 21]	1.5	1.3	1.1	1.4	1.0	2.1	1.1	17.2	0.8	0.9	0.9										isoTOP-ABPP ratio (reactivity profile), Q96GG9_C115 ([4]; 500 μm in-vitro ramos_231): 1.0; isoTOP-ABPP ratio (reactivity profile), O14980_C528 ([7]; 500 μm in-vitro ramos_231): 0.9
N#C/C(=C\c1cc(C(F)(F)F)cc(C(F)(F)F)c1)C(N)=O [compound 23]	0.7	0.9	0.8	0.7	20.0	1.0	0.8	1.0	2.9		4.6	1.1	1.4								
CC(Br)C(=O)Nc1cc(C(F)(F)F)cc(C(F)(F)F)c1 (centres unmarked) [compound 24]		1.6			1.7	1.3		4.0	20.0	2.6		0.9	1.3								
C=CC(=O)N(Cc1cccnc1)c1cc(C(F)(F)F)cc(C(F)(F)F)c1 [compound 31]														0.4	2.0	0.6	0.9	1.1	1.2	2.8	isoTOP-ABPP reactivity ratio, O75874_C269 ([1]; in-vitro_ramos): 0.7; isoTOP-ABPP reactivity ratio, P09211_C48 ([2]; in-vitro_ramos): 1.3; isoTOP-ABPP reactivity ratio, O14980_C528 ([7]; in-vitro_ramos): 3.2; isoTOP-ABPP reactivity ratio, O14980_C528 ([7]; in-vitro_ramos_231): 5.2; isoTOP-ABPP reactivity ratio, P63244_C182 [8]: 1.3
C=CC(=O)Nc1cc(F)c(N2CCN(C(=O)OC(C)(C)C)CC2)c(F)c1 [compound 38]														0.7	1.9	1.5	1.0	1.3	1.0	1.8	isoTOP-ABPP reactivity ratio, O00170_C122 ([3]; in-vitro_ramos_231): 1.5; isoTOP-ABPP reactivity ratio, Q96GG9_C115 ([4]; in-vitro_ramos_231): 1.2; isoTOP-ABPP reactivity ratio, O14980_C528 ([7]; in-vitro_ramos_231): 1.0; isoTOP-ABPP reactivity ratio, P63244_C182 [8]: 1.1
